The text below walks through data of patent US11377429B2, “Benzothia(di)azepine compounds and their use as bile acid modulators” (Albireo AB, priority 2020, dated 2022).

Where only a bound is given, the exact number is not on record here.

One assay addresses T1, Human LBAT (Homo sapiens, UniProt Q14973).
T1 construct: expressed in transfected cells; cultured under Geneticin selection
T1 sequence (Q14973 1-349): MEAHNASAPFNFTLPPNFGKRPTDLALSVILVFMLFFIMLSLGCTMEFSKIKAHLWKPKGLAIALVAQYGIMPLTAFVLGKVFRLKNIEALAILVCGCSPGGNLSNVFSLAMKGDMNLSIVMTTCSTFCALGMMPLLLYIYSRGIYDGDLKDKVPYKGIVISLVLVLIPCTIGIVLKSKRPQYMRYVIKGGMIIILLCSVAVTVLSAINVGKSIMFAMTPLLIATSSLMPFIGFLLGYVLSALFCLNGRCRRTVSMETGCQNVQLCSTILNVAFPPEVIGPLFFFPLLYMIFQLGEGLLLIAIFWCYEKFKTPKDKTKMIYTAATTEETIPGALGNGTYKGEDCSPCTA
The assay is described as follows: LBAT (h/m) assay, human LBAT-overexpressing cells, 3H-taurocholic acid uptake. The settings on record: read-out: hLBAT IC50. In kind it is cell-based. The method, then:
LBAT (h/m) Assay Protocol
20,000 cells (Human or Mouse LBAT-overexpressing cells) were seeded in 96-wells plate (Corning CLS3809) in 100 μL MEM-alpha medium (Gibco 12571-063) supplemented with 10% FBS (Gibco 10438026) containing Geneticin (Gibco 10131-027) (1 mg/mL) and incubated at 37° C. in 5% CO2 for 24 hours. After incubation, media was decanted from the wells and cells were washed two times with 300 μL of basal MEM-alpha medium (FBS-free). After decanting basal MEM-alpha medium each time, plates were tapped against paper towel to ensure maximum removal of residual media. For human LBAT, incubation mix was prepared by adding test inhibitor dilutions (3-fold serial dilution in DMSO (Sigma D2650), 10 points) in MEM-alpha (without FBS) containing 0.3 μM 3H-taurocholic acid (ARC ART-1368) and 7.5 μM cold taurocholic acid (Sigma T4009) (maintaining 0.2% final DMSO concentration). For mouse LBAT, incubation mix was prepared by adding test inhibitor dilutions (3-fold serial dilution in DMSO, 10 points) in MEM-alpha (without FBS) containing 0.3 μM 3H-taurocholic acid and 25 μM cold taurocholic acid maintaining 0.2% final DMSO concentration). 50 μL of incubation mix containing test inhibitors was then added to the wells (in duplicate) and the plates were incubated for 20 minutes in a CO2 incubator at 37° C. After incubation, the reaction was stopped by keeping the plates on ice water mix for 2-3 minutes and then the incubation mix was aspirated completely from the wells. The wells were washed two times with 250 μL of chilled unlabeled 1 mM taurocholic acid dissolved in HEPES (Gibco 15630080)-buffered (10 mM) HBSS (Gibco 14175079) (pH 7.4). The plates were tapped against a paper towel after every wash to ensure maximum removal of blocking buffer.
100 μL of MicroScint-20 (PerkinElmer 6013621) was added to the wells and kept overnight at room temperature before reading the plates in TopCount NXT™ Microplate Scintillation and Luminescence Counter from PerkinElmer under 3H Test protocol (set at 120 seconds reading time per well, with normal plate orientation).
(§1) Preparation of Test Compound Dilutions
(§2) All test compounds were provided in powder form at room temperature. 10 mM DMSO stocks of the test compounds were prepared, aliquoted and stored at −20° C. From the 10 mM DMSO stock of the compounds, a 3-fold serial dilution in DMSO was prepared to get a total of 10 dilutions of the test compounds. 0.5 μL of this dilution in DMSO was added to 250 μL of FBS-free basal media containing 3H-taurocholic acid and cold taurocholic acid to prepare the incubation mixture.

In a further assay the target is T2, Human IBAT (Homo sapiens, UniProt Q12908).
T2 construct: expressed in transfected cells; cultured under Puromycin selection
T2 sequence (Q12908 1-348): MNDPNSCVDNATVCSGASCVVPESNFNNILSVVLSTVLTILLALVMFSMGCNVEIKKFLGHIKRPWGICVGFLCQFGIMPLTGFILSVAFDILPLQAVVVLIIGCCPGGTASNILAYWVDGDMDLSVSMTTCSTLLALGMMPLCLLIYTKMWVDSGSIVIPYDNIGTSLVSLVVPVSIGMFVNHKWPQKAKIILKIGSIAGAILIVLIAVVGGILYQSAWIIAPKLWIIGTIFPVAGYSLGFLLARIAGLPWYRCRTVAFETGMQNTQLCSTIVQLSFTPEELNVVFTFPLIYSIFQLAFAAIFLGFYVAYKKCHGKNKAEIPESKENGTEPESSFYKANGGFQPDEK
The assay is described as follows: IBAT (h/m) assay, human IBAT-overexpressing cells, 3H-taurocholic acid uptake. In kind it is cell-based. The settings on record: read-out: hIBAT IC50. The procedure: IBAT (h/m) Assay Protocol
10,000 cells (Human or Mouse IBAT-overexpressing cells) were seeded in 96-wells plate (Corning CLS3809) in 200 μL MEM-alpha medium (Gibco 12571-063) supplemented with 10% FBS (Gibco 10438026) containing Puromycin (Gibco A1113803) (10 μg/mL) and incubated at 37° C. in 5% CO2 for 48 hours. After incubation, media was decanted from the wells and cells were washed two times with 300 μL of basal MEM-alpha medium (FBS-free). After decanting basal MEM-alpha medium each time, plates were tapped against paper towel to ensure maximum removal of residual media. Test inhibitor dilutions (highest test concentration being 10 μM, 3-fold serial dilution, 10 points) prepared in DMSO (Sigma D2650) were added in incubation mix (maintaining 0.2% final DMSO concentration) containing 0.25 μM 3H-taurocholic acid (ARC ART-1368) and 5 μM of cold taurocholic acid (Sigma T4009). 50 μL of incubation mix containing test inhibitors was then added to the wells (in duplicate) and the plates were incubated for 20 minutes in a CO2 incubator at 37° C. After incubation, the reaction was stopped by keeping the plates on ice water mix for 2-3 minutes and then the incubation mix was aspirated completely from the wells. The wells were washed two times with 250 μL of chilled unlabeled 1 mM taurocholic acid dissolved in HEPES (Gibco 15630080)-buffered (10 mM) HBSS (Gibco 14175079) (pH 7.4). The plates were tapped against a paper towel after every wash to ensure maximum removal of blocking buffer. 100 μL of MicroScint-20 (PerkinElmer 6013621) was added to the wells and kept overnight at room temperature before reading the plates in TopCount NXT™ Microplate Scintillation and Luminescence Counter from PerkinElmer under 3H Test protocol (set at 120 seconds reading time per well).
as §1, §2

Broadly, the IC50 is the point on the concentration scale where inhibition reaches its midpoint. For the molecule `CCCCC1(CC)CN(c2ccc(F)cc2)c2cc(SC)c(OCC3(C(=O)O)CC3)cc2S(=O)(=O)C1` (racemic) [Example 2, 1-(((3-butyl-3-ethyl-5-(4-fluorophenyl)-7-(methylthio)-1,1-dioxido-2,3,4,5-tetrahydro-1,5-benzothiazepin-8-yl)oxy)methyl)cyclopropane-1-carboxylic Acid], the IC50 on Human LBAT was 320 nM; at Human IBAT it was 11 nM. On to `CCCCC1(CC)CN(c2ccc(F)cc2)c2cc(SC)c(OCC(C)(C)C(=O)O)cc2S(=O)(=O)C1` (racemic) [Example 4, 3-((3-butyl-3-ethyl-5-(4-fluorophenyl)-7-(methylthio)-1,1-dioxido-2,3,4,5-tetrahydro-1,5-benzothiazepin-8-yl)oxy)-2,2-dimethylpropanoic Acid], for which the values for the IC50 at Human LBAT and at Human IBAT were 173 nM and 37 nM, respectively.

For the molecule `CCCCC1(C)CN(c2ccc(F)cc2)c2cc(SC)c(OCC(O)C(=O)O)cc2S(=O)(=O)C1` (single isomer, unassigned) [1, diastereomer 2], the results for the IC50 on Human LBAT and at Human IBAT were 2020 nM and 2 nM, respectively.

Consider `CCCCC1(C)CN(c2ccc(F)cc2)c2cc(SC)c(OCC(O)C(=O)O)cc2S(=O)(=O)C1` (single isomer, unassigned) [1, diastereomer 3], for which the results for the IC50 at Human LBAT and on Human IBAT were 921 nM and 61 nM, respectively. For `CCCCC1(C)CN(c2ccc(F)cc2)c2cc(SC)c(OCC(O)C(=O)O)cc2S(=O)(=O)C1` (single isomer, unassigned) [1, diastereomer 4], the IC50 worked out at 1050 nM at Human LBAT and 122 nM at Human IBAT. For the molecule `CCCCC1(CC)CN(c2ccc(F)cc2)c2cc(SC)c(OCC3(C(=O)O)CC3)cc2S(=O)(=O)C1` (single isomer, unassigned) [3, enantiomer 2], the values for the IC50 at Human LBAT and at Human IBAT were 1080 nM and 258 nM, respectively.

In the case of `CCCCC1(CC)CN(c2ccc(F)cc2)c2cc(SC)c(OCC(C)(C)C(=O)O)cc2S(=O)(=O)C1` (single isomer, unassigned) [5, enantiomer 2], the results for the IC50 on Human LBAT and on Human IBAT were 119 nM and 770 nM, respectively. With `CCCCC1(CCCC)CN(c2ccc(F)cc2)c2cc(SC)c(OCC(OC)C(=O)O)cc2S(=O)(=O)C1` (single isomer, unassigned) [10, enantiomer 1], the results for the IC50 at Human LBAT and on Human IBAT were greater than 6670 nM and 40 nM, respectively. For `CCCCC1(CCCC)CN(c2ccc(F)cc2)c2cc(SC)c(OCC(OC)C(=O)O)cc2S(=O)(=O)C1` (single isomer, unassigned) [10, enantiomer 2], in that order: greater than 2220 nM and 4 nM.

In the case of `CCC1(CC)CN(c2ccccc2)c2cc(SC)c(OCC(C)(F)C(=O)O)cc2S(=O)(=O)C1` (stereo not shown) [Example 6, 3-((3,3-diethyl-7-(methylthio)-1,1-dioxido-5-phenyl-2,3,4,5-tetrahydro-1,5-benzothiazepin-8-yl)oxy)-2-fluoro-2-methylpropanoic Acid], the concentration for half-maximal inhibition (IC50) at Human LBAT came to 83 nM; on Human IBAT it was 338 nM.

In the case of `CCCCC1(CC)CN(c2ccc(F)cc2)c2cc(SC)c(OCC(OC)C(=O)O)cc2S(=O)(=O)C1` (stereo not shown) [Example 8, 3-((3-butyl-3-ethyl-5-(4-fluorophenyl)-7-(methylthio)-1,1-dioxido-2,3,4,5-tetrahydro-1,5-benzothiazepin-8-yl)oxy)-2-methoxypropanoic Acid], the values for the half-inhibitory concentration (IC50) at Human LBAT and on Human IBAT were 2990 nM and 4 nM, respectively. As for `CCCCC1(CCCC)CN(c2ccc(F)cc2)c2cc(SC)c(OCC(OC)C(=O)O)cc2S(=O)(=O)C1` (stereo not shown) [Example 9, 3-((3,3-dibutyl-5-(4-fluorophenyl)-7-(methylthio)-1,1-dioxido-2,3,4,5-tetrahydro-1,5-benzothiazepin-8-yl)oxy)-2-methoxypropanoic Acid], the IC50 at Human LBAT amounted to 5410 nM; on Human IBAT it was 10 nM. Consider `CCCCC1(CC)CN(c2ccc(F)cc2)c2cc(SC)c(OCC(OCC)C(=O)O)cc2S(=O)(=O)C1` (stereo not shown) [Example 11, 3-((3-butyl-3-ethyl-5-(4-fluorophenyl)-7-(methylthio)-1,1-dioxido-2,3,4,5-tetrahydro-1,5-benzothiazepin-8-yl)oxy)-2-ethoxypropanoic Acid], for which the IC50 at Human IBAT came out at 10 nM.

As for `CCCCC1(CCCC)CN(c2ccccc2)c2cc(SC)c(OCC(OCC)C(=O)O)cc2S(=O)(=O)C1` (stereo not shown) [Example 12, 3-((3,3-dibutyl-7-(methylthio)-1,1-dioxido-5-phenyl-2,3,4,5-tetrahydro-1,5-benzothiazepin-8-yl)oxy)-2-ethoxypropanoic Acid], the IC50 at Human LBAT turned out to be 1250 nM; at Human IBAT it was 3 nM.

With `CCC1(CC)CN(c2ccc(F)cc2)c2cc(SC)c(OCC(C)(C)C(=O)O)cc2S(=O)(=O)C1` [Example 13, 3-((3,3-diethyl-5-(4-fluorophenyl)-7-(methylthio)-1,1-dioxido-2,3,4,5-tetrahydro-1,5-benzothiazepin-8-yl)oxy)-2,2-dimethylpropanoic Acid], the IC50 at Human LBAT turned out to be 21 nM; at Human IBAT, 256 nM. For `CCCC1(CCC)CN(c2ccccc2)c2cc(SC)c(OCC(O)C(=O)O)cc2S(=O)(=O)C1` (stereo not shown) [Example 14, 2-Hydroxy-3-((7-(methylthio)-1,1-dioxido-5-phenyl-3,3-dipropyl-2,3,4,5-tetrahydro-1,5-benzothiazepin-8-yl)oxy)propanoic Acid], in that order: 3680 nM and 30 nM.
